The experiment has as its target 5-hydroxytryptamine receptor 1B (Homo sapiens) (UniProt P28222). In words: Binding affinity for cloned human 5-hydroxytryptamine 1D receptor beta.

5-hydroxytryptamine receptor 1B (Homo sapiens), sequence (P28222 whole entry, looked up): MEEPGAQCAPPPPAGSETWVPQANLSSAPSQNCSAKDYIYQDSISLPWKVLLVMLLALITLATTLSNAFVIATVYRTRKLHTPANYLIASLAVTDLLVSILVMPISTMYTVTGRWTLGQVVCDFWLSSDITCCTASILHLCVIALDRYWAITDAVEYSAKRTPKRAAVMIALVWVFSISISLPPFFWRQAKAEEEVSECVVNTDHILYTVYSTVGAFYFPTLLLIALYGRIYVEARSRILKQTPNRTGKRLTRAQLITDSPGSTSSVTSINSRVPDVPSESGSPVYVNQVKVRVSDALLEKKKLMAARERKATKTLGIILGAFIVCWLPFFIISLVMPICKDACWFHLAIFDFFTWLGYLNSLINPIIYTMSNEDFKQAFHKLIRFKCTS

For `CN(C)S(=O)(=O)Nc1ccc(N2CCN(C(=O)COc3ccc4[nH]cc(CCN)c4c3)CC2)cc1`, the inhibition constant (Ki) came to 1.9 nM.
In the case of `N#Cc1ccccc1N1CCN(C(=O)COc2ccc3[nH]cc(CCN)c3c2)CC1` [2-(4-{2-[3-(2-Amino-ethyl)-1H-indol-5-yloxy]-acetyl}-piperazin-1-yl)-benzonitrile] it was 0.39 nM; in that of `NCCc1c[nH]c2ccc(OCC(=O)N3CCN(c4ccccc4)CC3)cc12` [2-[3-(2-Amino-ethyl)-1H-indol-5-yloxy]-1-(4-phenyl-piperazin-1-yl)-ethanone], 0.4 nM.
The result for `NCCc1c[nH]c2ccc(OCC(=O)N3CCN(c4ccccc4CN)CC3)cc12` [2-[3-(2-Amino-ethyl)-1H-indol-5-yloxy]-1-[4-(2-aminomethyl-phenyl)-piperazin-1-yl]-ethanone] reads 1.8 nM.
As for `NCCc1c[nH]c2ccc(OCC(=O)N3CCN(c4ccccc4[N+](=O)[O-])CC3)cc12` [2-[3-(2-Amino-ethyl)-1H-indol-5-yloxy]-1-[4-(2-nitro-phenyl)-piperazin-1-yl]-ethanone], the Ki was 0.3 nM.
In the case of `NCCc1c[nH]c2ccc(OCC(=O)N3CCN(c4ccc(N)cc4)CC3)cc12` [2-[3-(2-Amino-ethyl)-1H-indol-5-yloxy]-1-[4-(4-amino-phenyl)-piperazin-1-yl]-ethanone] it was 1.6 nM.
For the molecule `NCCc1c[nH]c2ccc(OCC(=O)N3CCN(c4ccc(CN)cc4)CC3)cc12` [2-[3-(2-Amino-ethyl)-1H-indol-5-yloxy]-1-[4-(4-aminomethyl-phenyl)-piperazin-1-yl]-ethanone], the inhibition constant Ki worked out at 2.5 nM.
`NCCc1c[nH]c2ccc(OCC(=O)N3CCN(c4ccc([N+](=O)[O-])cc4)CC3)cc12` [2-[3-(2-Amino-ethyl)-1H-indol-5-yloxy]-1-[4-(4-nitro-phenyl)-piperazin-1-yl]-ethanone] registered an inhibition constant (Ki) of 0.83 nM.
Take `NCCc1c[nH]c2ccc(OCCCC(=O)N3CCN(c4ccc([N+](=O)[O-])cc4)CC3)cc12` [4-[3-(2-Amino-ethyl)-1H-indol-5-yloxy]-1-[4-(4-nitro-phenyl)-piperazin-1-yl]-butan-1-one]: the inhibition constant (Ki) was determined as 5 nM.
On to `NCCc1c[nH]c2ccc(OCCCCC(=O)N3CCN(c4ccc([N+](=O)[O-])cc4)CC3)cc12` [5-[3-(2-Amino-ethyl)-1H-indol-5-yloxy]-1-[4-(4-nitro-phenyl)-piperazin-1-yl]-pentan-1-one], for which affinity was put at a Ki of 1.8 nM.
The result for `NCCc1c[nH]c2ccc(OCCCCCC(=O)N3CCN(c4ccc(N)cc4)CC3)cc12` [6-[3-(2-Amino-ethyl)-1H-indol-5-yloxy]-1-[4-(4-amino-phenyl)-piperazin-1-yl]-hexan-1-one] reads 0.31 nM; that for `NCCc1c[nH]c2ccc(OCCCCCC(=O)N3CCN(c4ccc([N+](=O)[O-])cc4)CC3)cc12` [6-[3-(2-Amino-ethyl)-1H-indol-5-yloxy]-1-[4-(4-nitro-phenyl)-piperazin-1-yl]-hexan-1-one], 0.47 nM.
`CN(C)CCc1c[nH]c2ccc(C[C@H]3COC(=O)N3)cc12` [(S)-4-((3-(2-(dimethylamino)ethyl)-1H-indol-5-yl)methyl)oxazolidin-2-one] gave an inhibition constant (Ki) of 4 nM.
The result for `CS(=O)(=O)NCc1ccccc1N1CCN(C(=O)COc2ccc3[nH]cc(CCN)c3c2)CC1` [N-[2-(4-{2-[3-(2-Amino-ethyl)-1H-indol-5-yloxy]-acetyl}-piperazin-1-yl)-benzyl]-methanesulfonamide] reads 0.53 nM.
In the case of `CS(=O)(=O)NCc1ccc(N2CCN(C(=O)COc3ccc4[nH]cc(CCN)c4c3)CC2)cc1` [N-[4-(4-{2-[3-(2-Amino-ethyl)-1H-indol-5-yloxy]-acetyl}-piperazin-1-yl)-benzyl]-methanesulfonamide] it was 2.2 nM.
In the case of `NCCc1c[nH]c2ccc(OCC(=O)N3CCN(c4ccc(NC(=O)c5ccccc5)cc4)CC3)cc12` [N-[4-(4-{2-[3-(2-Amino-ethyl)-1H-indol-5-yloxy]-acetyl}-piperazin-1-yl)-phenyl]-benzamide] it was 1.3 nM; in that of `CS(=O)(=O)Nc1ccc(N2CCN(C(=O)COc3ccc4[nH]cc(CCN)c4c3)CC2)cc1` [N-[4-(4-{2-[3-(2-Amino-ethyl)-1H-indol-5-yloxy]-acetyl}-piperazin-1-yl)-phenyl]-methanesulfonamide], 2.7 nM.
Molecule `CS(=O)(=O)Nc1ccc(N2CCN(C(=O)CCCCCOc3ccc4[nH]cc(CCN)c4c3)CC2)cc1` [N-[4-(4-{6-[3-(2-Amino-ethyl)-1H-indol-5-yloxy]-hexanoyl}-piperazin-1-yl)-phenyl]-methanesulfonamide] displayed a Ki of 1.4 nM.

A word on the Ki: it is the equilibrium dissociation constant of an inhibitor or competing ligand from its target. A higher Ki goes with a looser hold on the target.

Values taken from BindingDB's records for doi:10.1021/jm00018a020 (Centre De Recherche Pierre Fabre, 1995).
